Experimental data as given in patent US7235590B2, “Use of treosulfan and derivatives thereof for treating multiple sclerosis” (Medac Gesellschaft fur Klinische Spezialpraparate mbH, priority 2002, dated 2007).

Legend:
[1] = test system: myelin oligodendrocyte glycoprotein (MOG) induced experimental autoimmune encephalomyelitis (EAE); assay: MOG-induced experimental autoimmune encephalomyelitis (EAE) in DA rats, clinical course; type: in vivo
Method: Using the example of experimental autoimmune encephalomyelitis (EAE) which is recognized as animal model of human MS, the effectiveness of treosulfan was first of all examined. […] In the first trials, treosulfan was applied on the day of immunisation, in another on day 14 following immunisation.
Firstly, several trials for the determination of the dosage of treosulfan were carried out in DA rats, a strain of rat particularly suitable for these trials (Dark Agouti strain) with myelin oligodendrocyte glycoprotein (MOG) induced experimental autoimmune encephalomyelitis (EAE). These rats represent an excellent model of multiple sclerosis (MS) since the clinical development and the lesion morphology (inflammation, demyelination, loss of axons and nerve cells) of MS can be reproduced.
DA rats (10 animals per group) were treated either with a single dose of treosulfan (0.5 g/kg bodyweight) on the day of immunisation (p.i.) or with a three times repeated treosulfan application (0.5 g/kg bodyweight per application) at intervals of 1 day. PBS (phosphate buffered salt solution) was administered as control. In a further experiment, treosulfan (single dose: 0.5 g/kg bodyweight) was administered 2 weeks after immunisation. The total number of rats was 30 animals. The animals were observed clinically for the period of 40 days after initiation of the experiment and regularly examined neurologically.
FIGS. 3 and/or 3a are different representations of the experiment in which treosulfan was administered on day 14 following immunisation.

[2] = Tolerance and haematological characterisation in MOG-EAE rats; type: in vivo, DA rats
Source text: To analyse the haematological status, blood was taken from the rats on day 0, day 5, day 14, and day 53 following immunisation and a determination of haemoglobin (Hb), reticulocytes, leukocytes, thrombocytes and crythrocytes carried out.
The tolerance of treosulfan is illustration in FIGS. 5–15.

[3] = test system: secondary progressive MS; assay: Healing trial on patients with secondary progressive MS; type: in vivo
Method: In the course of a first healing trial, 5 patients suffering from secondary progressive MS (SPMS patients) were treated. They consisted of 3 men […]/62 and two women […].
As part of the therapy, treosulfan was administered in the form of a solution suitable for intravenous application (infusion). The patients were treated with a dosage of 5 g/m^2 body surface in each case at intervals of 4 weeks in the first quarter. Subsequently, a single treosulfan application (5 g/m^2 of treosulfan) took place per quarter.
In the case of two patients, an improvement of the ambulation index (S. L. Hauser et al. N. Engl. J. Med. 308 (1983) 173–178) was observed.

[4] = test system: interleukin 12 (IL-12); assay: Quantitative PCR for IL-12 in MOG-EAE rats; type: in vivo, DA rats; conditions: treatment on day 0
Source text: (§1) In a second experiment, five rats each were characterised immunologically on day 12 and day 40 (total number of animals: n=30) following the immunisation with respect to T and B cell response (EliSpot (Autoimmun Diagnostika GmbH, D-72479 Strassberg) for IFN-secreting cells, proliferations, auto-antibody analysis). (R. Weissert et al., J. Immunol. 160 […], 681–690).
(§2) It was, moreover, observed that the interleukin 12 (IL-12) and/or interferon-β (IFN-β) values were reduced in the treosulfan group (FIG. 16, 17). (R. Weissert et al., J. Immunol. 166 (2001), 7588–7599).
FIG. 17: Quantitative PCR for IL-12 treatment with treosulfan on day 0.

[5] = test system: interferon-β (IFN-β); assay: Quantitative PCR for IFN in MOG-EAE rats; type: in vivo, DA rats; conditions: treatment on day 0
Source text: as §1, §2
FIG. 16: Quantitative PCR for IFN-treatment with treosulfan on day 0.

Structure (SMILES) | effectiveness compared with the treosulfan group ([1]; same trial conditions, single i.p. treatment on the day of immunisation) | changes to the blood picture (Hb, reticulocytes, leukocytes, thrombocytes, erythrocytes) ([2]; blood taken day 0, 5, 14 and 53 following immunisation) | weight ([2]; single dose of 1 g/kg i.p., at the beginning of the treatment) | patients with improvement of the ambulation index ([3]; 5 SPMS patients, 5 g/m^2 body surface i.v. infusion every 4 weeks in the first quarter, then once per quarter) | substance-related secondary effects ([3]; 5 SPMS patients, 5 g/m^2 i.v. infusion) | disease development in MS patients ([3]; summary statement) | tolerance ([3]; summary statement) | effectiveness in comparison with the untreated control group ([1]; FIGS. 1-3a) | animals still alive ([1]; day 53, untreated control group 2 out of 8) | suppression of the disease ([1]; single dose of 1 g/kg bodyweight, intraperitoneal) | disease course in contrast to untreated control group ([1]; treosulfan applied on day 14 following immunisation) | interleukin 12 (IL-12) values [4] | interferon-β (IFN-β) values [5]
O=C1c2c(O)ccc(O)c2C(=O)c2c(NCCNCCO)ccc(NCCNCCO)c21 [mitoxantrone] | no greater effectiveness | – | – | – | – | – | – | – | – | – | – | – | –
CS(=O)(=O)OC[C@H](O)[C@@H](O)COS(C)(=O)=O [treosulfan, (2S,3S)-threitol-1,4-bismethane sulphonate] | – | not documented | substantial decrease in weight | two | No substance-related secondary effects were observed | clear improvement | extremely well tolerated | confirm first of all the effectiveness | 7 out of 8 | capable of suppressing the disease | stabilisation | reduced | reduced
